Assay results published in the CheMixHub viscosity set.

Assay: xn = mol fraction of the nth substance listed

CCCCCCO + C1CCCCC1
Conditions	viscosity [mPa·s]
293.15 K, 100 kPa, x2 = 0.0817	4.68
293.15 K, 100 kPa, x2 = 0.1603	4.1
293.15 K, 100 kPa, x2 = 0.2421	3.55
293.15 K, 100 kPa, x2 = 0.3502	2.91
293.15 K, 100 kPa, x2 = 0.4409	2.45
293.15 K, 100 kPa, x2 = 0.5593	1.94
293.15 K, 100 kPa, x2 = 0.6517	1.64
293.15 K, 100 kPa, x2 = 0.7396	1.4
293.15 K, 100 kPa, x2 = 0.8512	1.18
293.15 K, 100 kPa, x2 = 0.9402	1.05
303 K, 101.33 kPa, x1 = 0.1	0.8842
303 K, 101.33 kPa, x1 = 0.2008	1.003
303 K, 101.33 kPa, x1 = 0.2997	1.155
303 K, 101.33 kPa, x1 = 0.4002	1.329
303 K, 101.33 kPa, x1 = 0.4994	1.58
303 K, 101.33 kPa, x1 = 0.6004	1.919
303 K, 101.33 kPa, x1 = 0.6986	2.266
303 K, 101.33 kPa, x1 = 0.8004	2.705
303 K, 101.33 kPa, x1 = 0.8991	3.173
303.15 K, 100 kPa, x2 = 0.0817	3.47
303.15 K, 100 kPa, x2 = 0.1603	3.06
303.15 K, 100 kPa, x2 = 0.2421	2.68
303.15 K, 100 kPa, x2 = 0.3502	2.23
303.15 K, 100 kPa, x2 = 0.4409	1.91
303.15 K, 100 kPa, x2 = 0.5593	1.56
303.15 K, 100 kPa, x2 = 0.6517	1.34
303.15 K, 100 kPa, x2 = 0.7396	1.14
303.15 K, 100 kPa, x2 = 0.8512	0.96
303.15 K, 100 kPa, x2 = 0.9402	0.86
303.15 K, 101 kPa, x1 = 0.6491	1.907
303.15 K, 101.33 kPa, x1 = 0.1085	0.9365
303.15 K, 101.33 kPa, x1 = 0.2023	1.058
303.15 K, 101.33 kPa, x1 = 0.3065	1.225
303.15 K, 101.33 kPa, x1 = 0.3939	1.392
303.15 K, 101.33 kPa, x1 = 0.5019	1.641
303.15 K, 101.33 kPa, x1 = 0.6052	1.93
303.15 K, 101.33 kPa, x1 = 0.701	2.255
303.15 K, 101.33 kPa, x1 = 0.7991	2.649
303.15 K, 101.33 kPa, x1 = 0.8894	3.088
308.15 K, 101 kPa, x1 = 0.6491	1.701
313 K, 101.33 kPa, x1 = 0.1	0.7554
313 K, 101.33 kPa, x1 = 0.2008	0.8505
313 K, 101.33 kPa, x1 = 0.2997	0.9723
313 K, 101.33 kPa, x1 = 0.4002	1.115
313 K, 101.33 kPa, x1 = 0.4994	1.302
313 K, 101.33 kPa, x1 = 0.6004	1.526
313 K, 101.33 kPa, x1 = 0.6986	1.781
313 K, 101.33 kPa, x1 = 0.8004	2.083
313 K, 101.33 kPa, x1 = 0.8991	2.417
313.15 K, 100 kPa, x2 = 0.0817	2.61
313.15 K, 100 kPa, x2 = 0.1603	2.33
313.15 K, 100 kPa, x2 = 0.2421	2.04
313.15 K, 100 kPa, x2 = 0.3502	1.72
313.15 K, 100 kPa, x2 = 0.4409	1.49
313.15 K, 100 kPa, x2 = 0.5593	1.24
313.15 K, 100 kPa, x2 = 0.6517	1.08
313.15 K, 100 kPa, x2 = 0.7396	0.93
313.15 K, 100 kPa, x2 = 0.8512	0.79
313.15 K, 100 kPa, x2 = 0.9402	0.72
313.15 K, 101 kPa, x1 = 0.6491	1.63
323 K, 101.33 kPa, x1 = 0.1	0.65
323 K, 101.33 kPa, x1 = 0.2008	0.7271
323 K, 101.33 kPa, x1 = 0.2997	0.8205
323 K, 101.33 kPa, x1 = 0.4002	0.9237
323 K, 101.33 kPa, x1 = 0.4994	1.061
323 K, 101.33 kPa, x1 = 0.6004	1.239
323 K, 101.33 kPa, x1 = 0.6986	1.433
323 K, 101.33 kPa, x1 = 0.8004	1.658
323 K, 101.33 kPa, x1 = 0.8991	1.896
323.15 K, 100 kPa, x2 = 0.0817	2.02
323.15 K, 100 kPa, x2 = 0.1603	1.8
323.15 K, 100 kPa, x2 = 0.2421	1.6
323.15 K, 100 kPa, x2 = 0.3502	1.36
323.15 K, 100 kPa, x2 = 0.4409	1.19
323.15 K, 100 kPa, x2 = 0.5593	1
323.15 K, 100 kPa, x2 = 0.6517	0.87
323.15 K, 100 kPa, x2 = 0.7396	0.77
323.15 K, 100 kPa, x2 = 0.8512	0.67
323.15 K, 100 kPa, x2 = 0.9402	0.61

O=C1CCCCC1 + C1CCCCC1
Conditions	viscosity [mPa·s]
298.15 K, 101.3 kPa, x2 = 0.4895	1.275
303.15 K, 101 kPa, x2 = 0.1065	1.596
303.15 K, 101 kPa, x2 = 0.2078	1.451
303.15 K, 101 kPa, x2 = 0.3013	1.32
303.15 K, 101 kPa, x2 = 0.3971	1.214
303.15 K, 101 kPa, x2 = 0.5022	1.102
303.15 K, 101 kPa, x2 = 0.604	1.027
303.15 K, 101 kPa, x2 = 0.7024	0.9614
303.15 K, 101 kPa, x2 = 0.8086	0.8788
303.15 K, 101 kPa, x2 = 0.8742	0.8504
303.15 K, 101 kPa, x2 = 0.9034	0.8387

CC(C)CC(C)(C)C + C1COCCO1
viscosity [mPa·s], 101 kPa
Conditions	x2 = 0.1085	x2 = 0.2061	x2 = 0.2943	x2 = 0.3746	x2 = 0.515	x2 = 0.6337	x2 = 0.6865	x2 = 0.8237	x2 = 0.9008
293.15 K	0.5237	0.5426	0.5664	0.5961	0.6613	0.7446	0.7922	0.9589	1.083
298.15 K	0.4947	0.5119	0.5334	0.561	0.6252	0.6968	0.7388	0.885	0.9979
303.15 K	0.4683	0.4835	0.5036	0.5289	0.5825	0.6529	0.6909	0.8248	0.9282
308.15 K	0.4438	0.4578	0.4761	0.4992	0.5485	0.6141	0.6485	0.7634	0.857
313.15 K	0.4211	0.4352	0.4507	0.4727	0.5181	0.5788	0.6082	0.7242	0.7993
